In ChEMBL document CHEMBL1156113, “Synthesis of new sugar derivatives and evaluation of their antibacterial activities against Mycobacterium tuberculosis” (Bioorg Med Chem Lett, 2009):
Values after ≈ are worked out from the molar mass of the structure shown.

Legend:
[1] = system: Mycolicibacterium smegmatis; test: Antibacterial activity against Mycobacterium smegmatis by broth dilution method; format: functional
Escherichia coli [2] = test: Antibacterial activity against Escherichia coli by broth dilution method; format: functional
Mycobacterium avium [3] = test: Antibacterial activity against Mycobacterium avium 724S by broth dilution method; format: functional
Mycobacterium avium [4] = test: Antibacterial activity against Mycobacterium avium SmO by broth dilution method; format: functional
Staphylococcus aureus [5] = test: Antibacterial activity against Staphylococcus aureus by broth dilution method; format: functional
[6] = system: Mycobacterium tuberculosis; test: Antituberculosis activity against Mycobacterium tuberculosis H37Rv by broth dilution method; format: functional
[7] = microbe, parasite or virus in culture; format: functional, Mycobacterium bovis BCG str. Tokyo 172; conditions: Mycobacterium tuberculosis variant bovis BCG
Description: (§1) Antibacterial activity against Mycobacterium bovis BCG str. Tokyo 172 by broth dilution method

[8] = system: Mycobacterium tuberculosis; test: Antimycobacterial activity against drug-susceptive Mycobacterium tuberculosis isolate A-3-21 by agar proportion method; format: functional
[9] = system: Mycobacterium tuberculosis; test: Antimycobacterial activity against drug-susceptive Mycobacterium tuberculosis isolate A-3-22 by agar proportion method; format: functional
[10] = Selectivity for Mycobacterium tuberculosis H37Rv over human A549 cells; design: reference not given here
[11] = system: Mycobacterium tuberculosis; test: Antimycobacterial activity against drug-susceptive Mycobacterium tuberculosis isolate A-3-9 by agar proportion method; format: functional
[12] = system: Mycobacterium tuberculosis; test: Antimycobacterial activity against drug-susceptive Mycobacterium tuberculosis isolate A-3-6 by agar proportion method; format: functional
[13] = system: Mycobacterium tuberculosis; test: Antimycobacterial activity against drug-susceptive Mycobacterium tuberculosis isolate A-3-11 by agar proportion method; format: functional
[14] = system: Mycobacterium tuberculosis; test: Antimycobacterial activity against drug-susceptive Mycobacterium tuberculosis isolate A-3-12 by agar proportion method; format: functional
[15] = system: Mycobacterium tuberculosis; test: Antimycobacterial activity against drug-susceptive Mycobacterium tuberculosis isolate A-3-5 by agar proportion method; format: functional
[16] = system: Mycobacterium tuberculosis; test: Antimycobacterial activity against drug-susceptive Mycobacterium tuberculosis isolate A-3-1 by agar proportion method; format: functional
[17] = system: Mycobacterium tuberculosis; test: Antimycobacterial activity against drug-susceptive Mycobacterium tuberculosis isolate A-3-13 by agar proportion method; format: functional
[18] = Selectivity for Mycobacterium tuberculosis H37Rv over human MRC5 cells; design: reference not given here
[19] = system: Mycobacterium tuberculosis; test: Antimycobacterial activity against drug-susceptive Mycobacterium tuberculosis isolate A-1-3 by agar proportion method; format: functional
[20] = system: Mycobacterium tuberculosis; test: Antimycobacterial activity against drug-susceptive Mycobacterium tuberculosis isolate A-3-19 by agar proportion method; format: functional
[21] = system: Mycobacterium tuberculosis; test: Antimycobacterial activity against drug-susceptive Mycobacterium tuberculosis isolate A-3-15 by agar proportion method; format: functional
[22] = system: Mycobacterium tuberculosis; test: Antimycobacterial activity against drug-susceptive Mycobacterium tuberculosis isolate A-3-20 by agar proportion method; format: functional
[23] = system: Mycobacterium tuberculosis; test: Antimycobacterial activity against drug-susceptive Mycobacterium tuberculosis isolate A-3-2 by agar proportion method; format: functional
[24] = system: Mycobacterium tuberculosis; test: Antimycobacterial activity against drug-susceptive Mycobacterium tuberculosis isolate A-3-17 by agar proportion method; format: functional
[25] = system: Mycobacterium tuberculosis; test: Antimycobacterial activity against drug-susceptive Mycobacterium tuberculosis isolate A-1-1 by agar proportion method; format: functional
[26] = system: Mycobacterium tuberculosis; test: Antimycobacterial activity against drug-susceptive Mycobacterium tuberculosis isolate A-3-16 by agar proportion method; format: functional
[27] = system: Mycobacterium tuberculosis; test: Antimycobacterial activity against drug-susceptive Mycobacterium tuberculosis isolate A-2-5 by agar proportion method; format: functional
[28] = system: Mycobacterium tuberculosis; test: Antimycobacterial activity against drug-susceptive Mycobacterium tuberculosis isolate A-1-2 by agar proportion method; format: functional
[29] = Selectivity for Mycobacterium tuberculosis H37Rv over human THP1 cells; design: species or system THP-1; reference not given here
Escherichia coli [30] = system: Escherichia coli
[31] = system: Mycobacterium tuberculosis; conditions: H37Rv
[32] = system: Mycobacterium bovis BCG str. Tokyo 172
Description: as §1

Staphylococcus aureus [33] = system: Staphylococcus aureus
[34] = system: Mycolicibacterium smegmatis
Mycobacterium avium [35] = conditions: 724S
Mycobacterium avium [36] = conditions: SmO

Compound | MIC [1] [µg/mL] | MIC (Escherichia coli [2]) [µg/mL] | MIC (Mycobacterium avium [3]) [µg/mL] | MIC (Mycobacterium avium [4]) [µg/mL] | MIC (Staphylococcus aureus [5]) [µg/mL] | MIC [6] [µg/mL] | MIC [7] [µg/mL] | Ratio [10] | Ratio [18] | Ratio [29] | also measured
CC(=O)N[C@@H]1[C@@H](O)[C@H](O)[C@@H](CSC(=S)N(C)C)O[C@H]1SC(=S)N(C)C | > 100 | > 100 | > 100 | > 100 | > 100 | 25 (≈ 58.5 µM) | > 100 |  |  |  | 
CC(=O)N[C@@H]1[C@@H](OC(C)=O)[C@H](OC(C)=O)[C@@H](COC(C)=O)O[C@H]1SC(=S)N(C)C | > 100 | > 100 | > 100 | > 100 | > 100 | > 100 | > 100 |  |  |  | 
CC(=O)N[C@@H]1[C@@H](O)[C@H](O)[C@@H](CO)O[C@H]1SC(=S)N(C)C | > 100 | > 100 | > 100 | > 100 | > 100 | 25 (≈ 77.1 µM) | 31.3 (≈ 96.5 µM) | 188 | 28 | 242 | MIC [8]: 6.25 µg/mL (≈ 19.3 µM); MIC [9]: 6.25 µg/mL (≈ 19.3 µM); MIC [11]: 6.25 µg/mL (≈ 19.3 µM); MIC [12]: 6.25 µg/mL (≈ 19.3 µM); MIC [13]: 6.25 µg/mL (≈ 19.3 µM); MIC [14]: 6.25 µg/mL (≈ 19.3 µM); MIC [15]: 6.25 µg/mL (≈ 19.3 µM); MIC [16]: 6.25 µg/mL (≈ 19.3 µM); MIC [17]: 6.25 µg/mL (≈ 19.3 µM); MIC [19]: 6.25 µg/mL (≈ 19.3 µM); MIC [20]: 6.25 µg/mL (≈ 19.3 µM); MIC [21]: 6.25 µg/mL (≈ 19.3 µM); MIC [22]: 6.25 µg/mL (≈ 19.3 µM); MIC [23]: 6.25 µg/mL (≈ 19.3 µM); MIC [24]: 12.5 µg/mL (≈ 38.5 µM); MIC [25]: 6.25 µg/mL (≈ 19.3 µM); MIC [26]: 6.25 µg/mL (≈ 19.3 µM); MIC [27]: 6.25 µg/mL (≈ 19.3 µM); MIC [28]: 6.25 µg/mL (≈ 19.3 µM)
CC(=O)N[C@H]1[C@H](OC(C)=O)O[C@H](COC(C)=O)[C@@H](OC(C)=O)[C@@H]1OC(C)=O | > 100 |  |  |  |  | > 100 | > 100 |  |  |  | 
CC(=O)N[C@@H]1[C@@H](O)[C@@H](O)[C@@H](CO)O[C@H]1SC(=S)N(C)C | > 100 | > 100 | > 100 | > 100 | > 100 | 12.5 (≈ 38.5 µM) | 25 (≈ 77.1 µM) |  |  |  | 
CC(=O)N[C@H]1[C@@H](O)[C@H](O)[C@@H](CO)O[C@@H]1SC(=S)N(C)C | > 100 | > 100 | > 100 | > 100 | > 100 | > 100 | > 100 |  |  |  | 
NCC[C@H](O)C(=O)N[C@@H]1C[C@H](N)[C@@H](O[C@H]2O[C@H](CN)[C@@H](O)[C@H](O)[C@H]2O)[C@H](O)[C@H]1O[C@H]1O[C@H](CO)[C@@H](O)[C@H](N)[C@H]1O [AMIKACIN] | 1.25 (≈ 2.13 µM) | 50 (≈ 85.4 µM) | > 100 | 1.56 (≈ 2.66 µM) | 100 (≈ 171 µM) | 1.75 (≈ 2.99 µM) | 0.78 (≈ 1.33 µM) |  |  |  | 
Nc1ccc(C(=O)O)c(O)c1 [AMINOSALICYLIC ACID] | 1000 (≈ 6530 µM) | > 100 | 100 (≈ 653 µM) | 100 (≈ 653 µM) | > 100 | 0.16 (≈ 1.04 µM) | 50 (≈ 327 µM) |  |  |  | 
CNC.Cl [DIMETHYLAMINE HCL] | > 100 |  |  |  |  | > 100 | > 100 |  |  |  | 
CNC [DIMETHYLAMINE] | > 100 |  |  |  |  | > 100 | > 100 |  |  |  | 
CC[C@@H](CO)NCCN[C@@H](CC)CO [ETHAMBUTOL] | 12.5 (≈ 61.2 µM) | > 100 | 3.13 (≈ 15.3 µM) | 1.56 (≈ 7.64 µM) | > 100 | 2.5 (≈ 12.2 µM) | 1.5 (≈ 7.34 µM) | 1434 | 111 | 916 | 
NNC(=O)c1ccncc1 [ISONIAZID] | 6.25 (≈ 45.6 µM) | > 100 | 50 (≈ 365 µM) | 3.13 (≈ 22.8 µM) | > 100 | 0.04 (≈ 0.292 µM) | 0.04 (≈ 0.292 µM) | 77277 | 7325 | 53613 | 
NC[C@H]1O[C@H](O[C@H]2[C@H](O)[C@@H](O[C@H]3O[C@H](CO)[C@@H](O)[C@H](N)[C@H]3O)[C@H](N)C[C@@H]2N)[C@H](O)[C@@H](O)[C@@H]1O [KANAMYCIN] | 3.13 (≈ 6.46 µM) | 12.5 (≈ 25.8 µM) | > 100 | 1.56 (≈ 3.22 µM) | 12.5 (≈ 25.8 µM) | 1.56 (≈ 3.22 µM) | 0.3 (≈ 0.619 µM) |  |  |  | 
CO[C@H]1/C=C/O[C@@]2(C)Oc3c(C)c(O)c4c(O)c(c(/C=N/N5CCN(C)CC5)c(O)c4c3C2=O)NC(=O)/C(C)=C\C=C\[C@H](C)[C@H](O)[C@@H](C)[C@@H](O)[C@@H](C)[C@H](OC(C)=O)[C@@H]1C [RIFAMPIN] | 1.56 (≈ 1.9 µM) | 50 (≈ 60.8 µM) | < 0.05 | 0.004 (≈ 0.00486 µM) | 0.002 (≈ 0.00243 µM) | 0.004 (≈ 0.00486 µM) | 0.004 (≈ 0.00486 µM) | 44510 | 16250 | 16256 | 
CN(C)C(=S)[S-].[Na+] [SODIUM DIMETHYLCARBAMODITHIOATE] | > 100 | > 100 |  |  | > 100 | 0.78 | 0.78 | 318 | 14 | 88 | 
CN[C@@H]1[C@H](O[C@H]2[C@H](O[C@H]3[C@H](O)[C@@H](O)[C@H](N=C(N)N)[C@@H](O)[C@@H]3N=C(N)N)O[C@@H](C)[C@]2(O)C=O)O[C@@H](CO)[C@H](O)[C@H]1O [STREPTOMYCIN] | 0.39 (≈ 0.671 µM) | 50 (≈ 86 µM) | 0.39 (≈ 0.671 µM) | 0.39 (≈ 0.671 µM) | 50 (≈ 86 µM) | 0.39 (≈ 0.671 µM) | 0.2 (≈ 0.344 µM) | 32154 | 4282 | 18367 | 
GENTAMICIN |  |  |  |  |  |  |  |  |  |  | MIC (Escherichia coli [30]): 6.25 µg/mL; MIC [31]: 3.13 µg/mL; MIC [32]: 1.56 µg/mL; MIC (Staphylococcus aureus [33]): 25 µg/mL; MIC [34]: 1.56 µg/mL; MIC (Mycobacterium avium [35]): 25 µg/mL; MIC (Mycobacterium avium [36]): 1.56 µg/mL
